ChEMBL document CHEMBL5131450, “Diaryl triazenes inhibit cytochrome P450 1A1 and 1B1 more strongly than aryl morpholino triazenes” (Bioorg Med Chem Lett, 2022)

Legend:
Type in all cases: ADME
[1] = biological target: T1, {'v': 'CYP1B1', 'o': 'p', 'q': 'Inhibition of CYP1B1 (unknown origin)'} (Homo sapiens, UniProt Q16678); experiment: Inhibition of CYP1B1 (unknown origin) assessed as remaining enzyme activity relative to control
T1 sequence (Q16678 whole entry): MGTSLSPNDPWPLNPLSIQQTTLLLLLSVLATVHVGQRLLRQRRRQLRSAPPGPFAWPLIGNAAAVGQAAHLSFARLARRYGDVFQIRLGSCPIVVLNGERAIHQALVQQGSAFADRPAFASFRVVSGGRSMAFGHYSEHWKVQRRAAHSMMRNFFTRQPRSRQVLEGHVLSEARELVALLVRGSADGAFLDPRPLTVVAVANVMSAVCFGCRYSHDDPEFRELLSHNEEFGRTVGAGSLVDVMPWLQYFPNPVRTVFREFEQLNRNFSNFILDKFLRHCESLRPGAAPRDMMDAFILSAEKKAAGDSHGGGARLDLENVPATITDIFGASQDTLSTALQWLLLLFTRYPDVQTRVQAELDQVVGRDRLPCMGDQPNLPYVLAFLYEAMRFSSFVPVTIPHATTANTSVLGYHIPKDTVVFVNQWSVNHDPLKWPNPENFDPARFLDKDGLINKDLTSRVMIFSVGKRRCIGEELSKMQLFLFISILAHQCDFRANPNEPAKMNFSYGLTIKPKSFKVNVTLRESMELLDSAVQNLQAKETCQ

Cytochrome P450 1B1 = biological target: T2, Cytochrome P450 1B1 (Homo sapiens, UniProt Q16678); experiment: Inhibition of CYP1B1 (unknown origin)
T2 sequence (Q16678 whole entry): T1 sequence (Q16678 whole entry)

[2] = biological target: T3, {'v': 'CYP1A1', 'o': 'p', 'q': 'Inhibition of CYP1A1 (unknown origin)'} (Homo sapiens, UniProt P04798); experiment: Inhibition of CYP1A1 (unknown origin) assessed as remaining enzyme activity relative to control
T3 sequence (P04798 whole entry): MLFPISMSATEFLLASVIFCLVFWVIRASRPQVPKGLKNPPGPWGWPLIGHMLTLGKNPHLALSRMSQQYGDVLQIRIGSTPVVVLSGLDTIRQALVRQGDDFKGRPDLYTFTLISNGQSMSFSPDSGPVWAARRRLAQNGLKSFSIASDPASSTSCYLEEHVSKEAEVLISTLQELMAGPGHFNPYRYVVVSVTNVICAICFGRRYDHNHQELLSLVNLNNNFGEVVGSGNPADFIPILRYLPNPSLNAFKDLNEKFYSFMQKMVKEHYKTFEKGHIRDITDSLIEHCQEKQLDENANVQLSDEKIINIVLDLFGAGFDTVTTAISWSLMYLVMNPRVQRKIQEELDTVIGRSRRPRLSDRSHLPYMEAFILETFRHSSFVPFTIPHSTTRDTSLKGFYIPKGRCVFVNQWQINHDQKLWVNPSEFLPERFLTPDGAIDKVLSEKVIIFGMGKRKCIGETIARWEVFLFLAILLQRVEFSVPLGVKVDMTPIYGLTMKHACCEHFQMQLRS

Cytochrome P450 1A1 = biological target: T4, Cytochrome P450 1A1 (Homo sapiens, UniProt P04798); experiment: Inhibition of CYP1A1 (unknown origin)
T4 sequence (P04798 whole entry): T3 sequence (P04798 whole entry)

Row | Compound | activity [1] [%] | IC50 (Cytochrome P450 1B1) [µM] | activity [2] [%] | IC50 (Cytochrome P450 1A1) [µM]
1 | N#Cc1ccc(/N=N/Nc2ccc(C#N)cc2)cc1 | 8 | 0.74 | 96 | –
2 | c1ccc(N=NNc2ccccc2)cc1 | 4 | 2 | 9 | 8
3 | Brc1ccc(/N=N/Nc2ccc(Br)cc2)cc1 | 9 | 0.051 | 21 | 3
4 | CC(=O)c1ccc(/N=N/Nc2ccc(C(C)=O)cc2)cc1 | 19 | 0.59 | 33 | 4
